The text below walks through data of US4404138A, “3-[2-(Azabicyclo) ethyl]-1,2,3,4-tetrahydro-5H-[1]benzopyrano[3,4-c]pyridin-5-ones” (Warner-Lambert Company, priority 1982, dated 1983).

Like-named read-outs stand apart in the source and are kept apart here.

The test system of this assay is pilocarpine-induced bronchospasm and salivary flow in mongrel dogs. The assay can be described thus: Pilocarpine-induced bronchospasm and salivation in anesthetized mongrel dogs. The class given is in vivo. The settings on record: for ED50: Canis lupus familiaris, anesthetized dogs, pilocarpine nitrate 0.2 mg/kg/hr infusion, cumulative IV doses; for Pulmonary Selectivity*: value >1 indicates the compound is more potent as a bronchodilator than as an antisecretory agent. The protocol:
In an additional testing procedure, mongrel dogs of either sex, 10.6 to 15.3 kg, are anesthetized with sodium pentobarbital, 30 mg/kg IV and then prepared for the monitoring of pulmonary mechanics. A Buxco pulmonary mechanics computer is used to calculate pulmonary resistance, dynamic compliance, and tidal volume from transpulmonary pressure and flow data. Respiratory rate, heart rate and mean arterial blood pressure are also monitored. The femoral vein is cannulated for the delivery of drugs.
Pilocarpine nitrate (0.2 mg/kg/hr) is than infused to induce a bronchospasm and salivary flow. […] Salivary output is collected from a catheterized Wharton's duct at five minute intervals. After salivation has stabilized, three control collections are taken at five minute intervals followed by a series of cumulative IV doses of test compound (1, 3, 10, 30, 100, 300, 1000, 3000, and 10,000 μg/kg) that are injected every five minutes for 45 minutes.
The percent inhibition of both the bronchospasm and salivation are calculated for each dose with a return to prepilocarpine resistance levels or cessation of salivation equal to a 100% inhibition.

The mark [1] stands for this setting: inhibition of bronchospasm, read-out: ID50 μg/kg Bronchospasm.
[2] abbreviates: inhibition of salivation, read-out: ID50 μg/kg Salivation.

`COc1ccc2c3c(c(=O)oc2c1)CN(CCN1CC2CCC(CC2)C1)CC3` [R1=H, R2=MeO, R3=H, X=drawing 14]: the “Pulmonary Selectivity*” value is given as 3. For the same compound, the ED50 under setting [1] was determined as 35 µg/kg. For the same compound, the ED50 under setting [2] came to 104 µg/kg.
In the same order, the values of `COc1ccc2c3c(c(=O)oc2c1)CN(CCN1CC2CCC1CC2)CC3` [R1=H, R2=MeO, R3=H, X=drawing 16] are 1.61, 63 µg/kg and 102 µg/kg.
In the same order, the values of `COc1cc2oc(=O)c3c(c2cc1OC)CCN(CCN1CC2CCC(CC2)C1)C3` [R1=MeO, R2=MeO, R3=H, X=drawing 15] are 4.7, 113 µg/kg and 530 µg/kg.
